Assay results from BindingDB's records for doi:10.1016/S0960-894X(01)80395-4 (1994).

Target: Arachidonate 5-lipoxygenase (Cavia porcellus)
Assay: Inhibitory activity against 5-lipoxygenase in guinea pig leukocytes was determined

| Structure (SMILES) | IC50 [nM] |
| --- | --- |
| COc1ccc2[nH]c(-c3cc(C)c(O)c(C)c3)c(C)c2c1 [TZI-41127] | 240 |
| Cc1ccnc(N2CCN(CCC3Cn4c(-c5cc(C)c(O)c(C)c5)c(C)c5cc(O)cc(c54)O3)CC2)c1 (configuration not stated) [5-(4-Hydroxy-3,5-dimethyl-phenyl)-6-methyl-2-{2-[4-(4-methyl-pyridin-2-yl)-piperazin-1-yl]-ethyl}-2,3-dihydro-[1,4]oxazino[2,3,4-hi]indol-8-ol] | 180 |
